Reference: paper PMC6315564, “Geospallins A–C: New Thiodiketopiperazines with Inhibitory Activity against Angiotensin-Converting Enzyme from a Deep-Sea-Derived Fungus Geosmithia pallida FS140” (Marine Drugs, 2018)

Biological target: angiotensin-converting enzyme (ACE) (Homo sapiens, UniProt P12821)
Assay: Angiotensin-converting enzyme (ACE) inhibitory assay (N-hippuryl-His-Leu substrate, HPLC detection of hippuric acid)
Format: biochemical
Details: 37 °C, 60 min, captopril positive control, read-out: IC50 against angiotensin-converting enzyme (ACE)
Procedure: ACE inhibitory activity was determined by a previously reported method. In brief, 20 μL thiodiketopiperazines dissolved in DMSO with different concentrations were added to 120 μL N-hippuryl–His–Leu substrates, then preheated in water for 3–5 min; next, 10 μL ACE enzymatic solution was added and mixtures were incubated at 37 °C for 60 min, and 150 μL 1 M HCl was added to stop the reaction. The mixture was loaded for HPLC with a flow rate of 0.5 mL/min by 60% methanol, and the absorbance at 228 nm was detected. To serve as a blank, 10 μL pH 8.3 boric acid replaced the thiodiketopiperazines. Hippuric acid solutions at 10, 20, 40, 60, 80, and 100 μg/mL were prepared using 10 μL pH 8.3 boric acid. One enzymatic unit was defined as the amount giving the production of 1 μM hippuric acid by the catalyzation of the substrate N-hippuryl–His–Leu at 37 °C in 1 min. Captopril was used as a positive control.

Sequence of angiotensin-converting enzyme (ACE) (P12821 30-1306, species assumed): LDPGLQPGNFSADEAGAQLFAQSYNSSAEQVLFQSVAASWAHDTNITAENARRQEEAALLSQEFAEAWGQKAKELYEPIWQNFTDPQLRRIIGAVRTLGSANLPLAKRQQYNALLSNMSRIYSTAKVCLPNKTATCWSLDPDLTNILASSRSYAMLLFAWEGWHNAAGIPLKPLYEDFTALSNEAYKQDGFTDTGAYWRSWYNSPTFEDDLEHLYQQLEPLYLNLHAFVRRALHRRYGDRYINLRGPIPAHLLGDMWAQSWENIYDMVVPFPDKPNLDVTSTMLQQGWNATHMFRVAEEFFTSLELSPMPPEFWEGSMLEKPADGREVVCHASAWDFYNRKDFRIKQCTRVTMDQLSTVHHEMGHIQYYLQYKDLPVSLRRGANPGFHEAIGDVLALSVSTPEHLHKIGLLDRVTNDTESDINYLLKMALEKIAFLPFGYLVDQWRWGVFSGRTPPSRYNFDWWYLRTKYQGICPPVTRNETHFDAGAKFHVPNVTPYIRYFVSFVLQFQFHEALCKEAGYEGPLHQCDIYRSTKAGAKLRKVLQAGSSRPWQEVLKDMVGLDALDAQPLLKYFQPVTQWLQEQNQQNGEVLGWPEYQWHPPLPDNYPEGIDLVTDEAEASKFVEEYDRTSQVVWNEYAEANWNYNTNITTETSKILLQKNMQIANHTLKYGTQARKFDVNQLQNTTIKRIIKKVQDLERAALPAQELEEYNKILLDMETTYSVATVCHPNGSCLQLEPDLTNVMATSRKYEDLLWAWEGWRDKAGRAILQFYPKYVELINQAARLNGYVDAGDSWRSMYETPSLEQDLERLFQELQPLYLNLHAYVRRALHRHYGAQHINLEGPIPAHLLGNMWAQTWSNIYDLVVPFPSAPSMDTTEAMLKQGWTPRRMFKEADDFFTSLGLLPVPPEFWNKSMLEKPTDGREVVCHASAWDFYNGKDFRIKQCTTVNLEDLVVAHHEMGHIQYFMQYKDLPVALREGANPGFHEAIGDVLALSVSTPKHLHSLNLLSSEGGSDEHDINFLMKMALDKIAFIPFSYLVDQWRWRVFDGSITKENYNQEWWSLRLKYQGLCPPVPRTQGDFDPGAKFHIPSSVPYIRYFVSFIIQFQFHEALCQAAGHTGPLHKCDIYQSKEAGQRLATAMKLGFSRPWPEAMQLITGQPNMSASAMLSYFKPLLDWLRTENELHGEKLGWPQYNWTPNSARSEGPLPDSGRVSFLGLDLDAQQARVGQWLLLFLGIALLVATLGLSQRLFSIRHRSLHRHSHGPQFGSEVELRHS

SMILES	IC50 [µM]
CSC1C=CC(OC(C)=O)C2N3C(=O)C(CO)(SC)N(C)C(=O)C3(O)CC12O (stereo not drawn) [Compound 2, geospallin B]	31 ± 3.3
COC12CC3(O)C(SC)C=CC(OC(C)=O)C3N1C(=O)C(CO)(SC)N(C)C2=O (stereo not drawn) [Compound 1, geospallin A]	35 ± 5.2
CSC1(CO)C(=O)N2C3C(OC(C)=O)C(=O)C=CC3(O)CC2(SC)C(=O)N1C (stereo not drawn) [Compound 3, geospallin C]	29 ± 3.3
